Measurements published in patent US9895324B2, “Halogenated diarylacetylenes and methods of treating cancer” (UNIVERSITY OF KENTUCKY RESEARCH FOUNDATION, priority 2014, dated 2018).
“Also recorded” adds a separate entry of the source. Where two headings read alike, the source gives them in different places.

How the values were obtained:
[1] = test system: LS174T cells; experiment: Cell proliferation assay, LS174T colon cancer cells; assay type: cell-based
Protocol: Cell Proliferation Assay.
LS174T cells were grown in RPMI medium (Mediatech) supplemented with 5% fetal bovine serum and 1% penicillin/streptomycin. For cell proliferation assays, 3×10^4 cells/well growing in 12-well plates were treated with DMSO or inhibitors. The cell numbers and viability were analyzed by Vi-Cell Cell Viability Analyzer after 4 days. The IC50 values were calculated with GraphPad Prim 5.

[2] = target: catalytic subunit of methionine S-adenosyltransferase-2 (MAT-2) (Homo sapiens, UniProt P31153); conditions: cited from earlier work
[3] = target: MAT2 (Homo sapiens, UniProt P31153); experiment: MAT2A inhibition assay; assay type: biochemical; conditions: compared with stilbene 1
Source text: We reported previously that stilbenes repressed colon cancer cell proliferation by inhibiting c-myc expression and inducing the cell cycle inhibitor, p21(Wif1/Cip1). See Zhang et al. J Med Chem 2011: 54:1288-1297. The similarity of the diarylacetylenes to the stilbenes also prompted an in silico modeling study of the binding of (E)-4-(2′,6′-difluorostyryl)-N,N-dimethylaniline (1) and 4((2,6-difluorophenyl)ethynyl)-N,N-dimethylaniline (2m). It was believed that para-oriented amino-substituents, such as the N-methylamino and N,N-dimethylamino groups, were associated with potent MAT2A inhibition. […] Variability in the MAT2A inhibition assay made the measurement of c-myc inhibition a preferred analytical tool for assessing the potency of diarylacetylenes.

[4] = Homo sapiens, LS174T, 96 h, 4 days, read-out: Inhibition of LS174T Cell Proliferation IC50
[5] = 4 days, read-out: Inhibition of LS174T Cell Proliferation IC50

catalytic subunit of methionine S-adenosyltransferase-2 (MAT-2), sequence (P31153 whole entry): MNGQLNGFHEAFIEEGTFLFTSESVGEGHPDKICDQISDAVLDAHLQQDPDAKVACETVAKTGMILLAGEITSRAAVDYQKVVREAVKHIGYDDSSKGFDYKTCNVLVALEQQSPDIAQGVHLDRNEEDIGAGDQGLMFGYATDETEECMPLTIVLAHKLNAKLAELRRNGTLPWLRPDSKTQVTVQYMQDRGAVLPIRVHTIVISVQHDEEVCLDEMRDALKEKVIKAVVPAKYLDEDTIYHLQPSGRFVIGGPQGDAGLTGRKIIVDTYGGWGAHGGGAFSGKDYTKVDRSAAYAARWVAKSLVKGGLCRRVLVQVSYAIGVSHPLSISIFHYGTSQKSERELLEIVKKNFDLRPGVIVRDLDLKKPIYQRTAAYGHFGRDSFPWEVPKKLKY
MAT2, sequence (P31153 whole entry): as above

Row | IC50 [1, 4] [nM] | melting point [°C] | SMILES | Potency as inhibitor of LS174T cell proliferation (in words) [1] | other results
1 | < 50 | 108 to 110 | CN(C)c1ccc(C#Cc2ccccc2Cl)cc1 [Compound 2e, 4-((2-Chlorophenyl)ethynyl)-N,N-dimethylaniline] |  | IC50 [1, 5]: 31 ± 3.1 nM
2 | > 3000 | 99 to 100 | CN(C)c1ccc(C#Cc2cccc(F)c2)cc1 [Compound 2f, 4-((3-Fluorophenyl)ethynyl)-N,N-dimethylaniline] | significantly less active | 
3 | > 3000 | 104 to 106 | CN(C)c1ccc(C#Cc2ccccc2)cc1 [Compound 2c, N,N-Dimethyl-4-(phenylethynyl)aniline] | very low potency | 
4 | 52 ± 7.1 | 96 to 98 | CN(C)c1ccc(C#Cc2c(Cl)cccc2Cl)cc1 [Compound 2o, 4-((2,6-Dichlorophenyl)ethynyl)-N,N-dimethylaniline] |  | 
5 | < 50 | 94 to 96 | CN(C)c1ccc(C#Cc2ccccc2F)cc1 [Compound 2d, 4-((2-Fluorophenyl)ethynyl)-N,N-dimethylaniline] |  | IC50 [1, 5]: 39 ± 6 nM
6 | 119 ± 4.6 | 104 to 106 | CN(C)c1ccc(C#Cc2cccc(F)c2F)cc1 [Compound 2h, 4-((2,3-Difluorophenyl)ethynyl)-N,N-dimethylaniline] |  | 
7 |  | 86 to 88 | CN(C)c1ccc(C#Cc2c(F)cccc2Cl)cc1 [Compound 2n, 4-((2-Chloro-6-fluorophenyl)ethynyl)-N,N-dimethylaniline] |  | 

The next lines start with the compound.

Row | SMILES | IC50 [1, 4] [nM] | melting point [°C] | Potency as inhibitor of LS174T cell proliferation (in words) [1] | other results
8 | CN(C)c1ccc(/C=C/c2c(F)cccc2F)cc1 [Compound 1, (E)-4-(2′,6′-difluorostyryl)-N,N-dimethylaniline, reference compound] | 59 ± 7.5 |  |  | Molecular target [2]: targeted exclusively the catalytic subunit of methionine S-adenosyltransferase-2 (MAT-2)
9 | CN(C)c1ccc(C#Cc2ccc(F)cc2)cc1 [Compound 2g, 4-((4-Fluorophenyl)ethynyl)-N,N-dimethylaniline] | > 3000 | 132 to 134 | very low potency; also recorded: significantly less active | 
10 | Nc1ccc(C#Cc2c(F)cccc2F)cc1 [Compound 2a, 4-((2,6-Difluorophenyl)ethynyl)aniline] | 55 ± 7.8 | 104 to 105 |  | IC50 ([1]; Homo sapiens, LS174T, read-out: IC50 (inhibition of LS174T cell proliferation)): 55 ± 7.8 nM
11 | CN(C)c1ccc(C#Cc2cc(F)cc(F)c2)cc1 [Compound 2k, 4-((3,5-Difluorophenyl)ethynyl)-N,N-dimethylaniline] | > 3000 | 72 to 74 | significantly less active | 
12 | CNc1ccc(C#Cc2c(F)cccc2F)cc1 [Compound 2b, 4-((2,6-Difluorophenyl)ethynyl)-N-methylaniline] |  | 69 to 70 |  | 
13 | CN(C)c1ccc(C#Cc2cc(F)ccc2F)cc1 [Compound 2l, 4-((2,5-Difluorophenyl)ethynyl)-N,N-dimethylaniline] | 55 ± 6 | 106 to 107 |  | 
14 | CN(C)c1ccc(C#Cc2ccc(F)c(F)c2)cc1 [Compound 2j, 4-((3,4-Difluorophenyl)ethynyl)-N,N-dimethylaniline] | > 3000 | 100 to 101 | significantly less active | 
15 | CN(C)c1ccc(C#Cc2c(F)cccc2F)cc1 [Compound 2m, 4-((2,6-Difluorophenyl)ethynyl)-N,N-dimethylaniline] |  |  |  | MAT2 inhibition (in words, data not shown) [3]: inhibited MAT2 at concentrations comparable to that of the stilbene 1
16 | CN(C)c1ccc(C#Cc2ccc(F)cc2F)cc1 [Compound 2i, 4-((2,4-Difluorophenyl)ethynyl)-N,N-dimethylaniline] | 56 ± 8.1 | 116 to 118 |  | 
